Results taken from patent US20090041888A1, “USE OF FORMULATED DIETS PROVIDING IMPROVED DIGESTION IN FISH” (SOUTHERN ILLINOIS UNIVERSITY, priority 2005, published 2009).

Experiments:
[1] = tested on: hybrid striped bass (Morone chrysops X M. saxatilis); assay: Growth and feed efficiency trial of practical diets supplemented with a non-nutritive emulsifier; format: in vivo; conditions: for FCR (feed conversion ratio) / Weight Gain (%): 28 days, initial weight 15 g; for Weight Gain (%): fed daily to satiation
Text: The present example provides details of experiments conducted to evaluate and quantify the effects of a non-nutritive emulsifier upon the growth and feed efficiency of phase-I hybrid striped bass (Morone chrysops×M. saxatilis). Tween-80® (provided as a liquid supplement) was incorporated into practical diets formulated to meet, or exceed, the known nutrient requirements of hybrid striped bass. Diets were formulated at Southern Illinois University using MIXIT 3 WIN (Agricultural Software Consultants, Inc., San Diego) and manufactured as cold pressed pellets.
Fish were stocked at a density of 15 fish per tank. Four practical diets were formulated to meet or exceed the known dietary requirements of juvenile hybrid striped bass. Each diet was supplemented with one of four concentrations of emulsifier providing dietary treatments of 0, 0.5, 1.0, and 2.0% Tween-80®, respectively. Fish were fed daily to satiation and feed consumption was monitored weekly. After 4 weeks, all fish in each tank were weighed to determine growth. Feed consumption was used to calculate feed conversion ratio (g feed:g weight gain).

[2] = tested on: juvenile sunshine bass Morone chrysops×M. saxatilis; assay: Gastric residuum stratification trial with pelleted diets with varied levels of lecithin inclusion; format: in vivo; conditions: 2% BWD meal, 4.5 h post-prandial
Text: Residuum appearance: Nine pellet trained sub-adult spotted bass (mean weight=150 grams) were maintained in isolation in 37.8 L glass aquariums for seven days. During days 1-5, the bass were hand-fed to satiation once daily with either a semi-purified pellet diet (See Table 2), live paper shell crayfish (Orconectes immunis), or live fathead minnows (Pimephales promelas). Three bass were given each dietary treatment. Crayfish and minnows were maintained on the same pelleted diet as the bass and fed to apparent satiation two times daily. On Day 6, food was withheld to allow complete evacuation of gastric contents. On Day 7, the bass were fed that same food as during Days 1-5, at a rate of approximately 2% of their body weight (dry weight of feed/wet weight of bass). Post-prandially (4.5 hours) the bass were dispatched with blunt trauma to the head before immersion in liquid nitrogen until frozen solid (approx. 2 mins.). The bass were stored frozen until the residuum was removed by dissection. The position of the pyloric sphincter was noted relative to the observed strata. Representative residua were photographed. Residuum strata were separated using a razor blade for determination of proximate composition.
Juvenile sunshine bass Morone chrysops×M. saxatilis (n=15) were stocked individually into 110 L tanks and acclimated for a period of five days. […]

[3] = juvenile hybrid striped bass, practical diets

Molecule: CCCCCCCC/C=C\CCCCCCCC(=O)OCCOCC(OCCO)C1OCC(OCCO)C1OCCO (stereo not shown) [Tween-80]
- FCR (feed conversion ratio) ([1]; 0.5% Tween-80 in diet): 1.21 g feed:g gain
- Weight Gain (%) ([1]; 0.5% Tween-80 in diet): 118%
- FCR (feed conversion ratio) ([1]; 1.0% Tween-80 in diet): 1.16 g feed:g gain
- Weight Gain (%) ([1]; 1.0% Tween-80 in diet): 140%
- FCR (feed conversion ratio) ([1]; 2.0% Tween-80 in diet): 1.23 g feed:g gain
- Weight Gain (%) ([1]; 2.0% Tween-80 in diet): 125%
- feed conversion compared to fish fed a control diet void of Tween-80 [1, 3]: improved
- weight gain compared to fish fed a control diet void of Tween-80 [1, 3]: improved

Molecule: lecithin (phosphatidyl choline)
- stratification of the gastric residuum ([2]; lecithin inclusion rates of 0.25, 0.50, 1.00 and 2.00% of pellet weight): reduce stratification of the gastric residuum
- amount of post-prandial water intake into the gastric residuum ([2]; lecithin inclusion rates of 0.50, 1.00 and 2.00%): reduce the amount of post-prandial water intake
